Here are results for eleven molecules from ChEMBL document CHEMBL1201862, “PubChem BioAssay data set” (2004).

SMILES strings stand for the structures.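 Where inhibition never reached the appropriate level, the endpoint shown equals the highest concentration tested. Otherwise, values were interpolated linearly from a five-concentration, 48-hour dose response in 96-well plates. GI50 marks 50% less growth.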 The source made the active and inactive calls. Rule as the data show it: active = GI50 up to about 1.1 µM and inactive = higher. Where a SMILES comes first, the peptide text is derived from it. The star is where a group is joined. Cbz = O=C(OCc1ccccc1)*

Assay in all cases: inhibition of tumour cell growth, NCI panel, 48 h
Test [1] concerns OVCAR-8.
Test [2] deals with OVCAR-4.
Test [3] concerns HT-29.
Test [4] relates to UACC-257.
In test [5] the test system is SK-MEL-28.
The test system of test [6] is Malme-3M.
Test [7] has as its system HCT-116.
Test [8] relates to IGROV-1.
For test [9], the system named is MOLT-4.
The test system of test [10] is A549.
For test [11], the system named is EKVX.
Test [12] relates to MDA-MB-435.
Test [13] has as its system SK-OV-3.
The subject of test [14] is DU-145.
Test [15] deals with NCI-H460.
The test system of test [16] is HCT-15.
Test [17] deals with NCI-H226.
The test system of test [18] is NCI-H23.
Test [19] concerns SF-268.
Test [20] deals with A498.

On to `CN(C)CCCc1cccc2[nH]c3c(c12)CN(C)CC3`, for which the GI50 in test [1] was > 100 µM (inactive); in test [2], > 100 µM (inactive); in test [3], 40.1 µM (inactive); in test [4] it was 80 µM (inactive); in [5], > 100 µM (inactive); in test [6] it was 95.9 µM (inactive). Besides, the GI50 was > 100 µM (inactive) in [7]; 73.1 µM (inactive) in test [8]; 75 µM (inactive) in [9]; > 100 µM (inactive) in test [10]; > 100 µM (inactive) in test [11]; > 100 µM (inactive) in test [12]. Further, the GI50 in [13] is > 100 µM (inactive); in test [14], > 100 µM (inactive); in [15], > 100 µM (inactive); in test [16] it was 80 µM; in [17] it was > 100 µM (inactive); in [18] it was > 100 µM (inactive). The GI50 in [19] was > 100 µM (inactive).
`O=[N+]([O-])/C(C(Cl)=C(Cl)Cl)=C(\Nc1ccccc1)n1nnc2ccccc21`: the GI50 in test [1] was > 100 µM (inactive); in [2], 17.6 µM (inactive); in test [3] it was 44.8 µM (inactive); in [4] it was > 100 µM (inactive); in test [5], 32.7 µM (inactive); in test [6], 46.1 µM (inactive). Also, the GI50 in test [7] is 65.3 µM (inactive); in test [9], 35.5 µM (inactive); in test [10] it was > 100 µM (inactive); in test [11], > 100 µM (inactive); in test [12], 26.8 µM (inactive); in test [13] it was 71.3 µM (inactive). For the same molecule, the GI50 in [15] was 77.8 µM (inactive); in [16], > 100 µM; in [17] it was > 100 µM (inactive); in test [20], > 100 µM (inactive); in test [18] it was 25.9 µM (inactive); in [19], 19.8 µM (inactive).
For `Clc1nc2c(C#Cc3ccccc3)ncnc2n1C1CCCCO1` (configuration not stated), the GI50 in test [1] was 19.9 µM (inactive); in test [2] it was 9.51 µM (inactive); in [3] it was 12.4 µM (inactive); in test [4], 15 µM (inactive); in test [5], 26.5 µM (inactive); in test [6], 17.6 µM (inactive). In addition, the GI50 is 10 µM (inactive) in test [7]; 13.5 µM (inactive) in test [8]; 17.7 µM (inactive) in [9]; 16.5 µM (inactive) in test [10]; 2.55 µM (inactive) in test [11]; 7 µM (inactive) in [12]. Besides, the GI50 in test [13] was 27.6 µM (inactive); in [14], 19 µM (inactive); in test [15] it was 15.7 µM (inactive); in [16] it was 12.2 µM; in test [17] it was 71.3 µM (inactive); in test [18] it was 12.9 µM (inactive). In addition, the GI50 in test [19] is 14 µM (inactive).
As for `CCCC[C@@H]1CCN2C[C@@H](O)[C@@H](O)[C@H]2[C@@H]1O`, the GI50 in test [1], in [2], in test [3], in test [4], in [5] and in test [6] was > 100 µM (inactive) each time. Moreover, the GI50 in test [7], in test [8], in test [9], in test [10], in test [11] and in test [12] was > 100 µM (inactive) each time. In addition, the GI50 in [13] is > 100 µM (inactive); in test [15], > 100 µM (inactive); in [16], > 100 µM; in test [17] it was > 100 µM (inactive); in test [20], > 100 µM (inactive); in [18], > 100 µM (inactive). Besides, in test [19], the GI50 is > 100 µM (inactive).
Consider `Cc1ccccc1/N=N/c1ccc(/N=N/c2c(O)ccc3cc(S(=O)(=O)O)cc(S(=O)(=O)O)c23)c(C)c1`, for which the GI50 in test [1], in test [2], in [3], in test [4], in test [5] and in test [6] was > 100 µM (inactive) each time. Moreover, the GI50 in [7], in test [8], in [9], in test [10], in test [11] and in test [12] was > 100 µM (inactive) throughout. The GI50 in test [13] was > 100 µM (inactive); in test [15], > 100 µM (inactive); in [16], > 100 µM; in test [17], > 100 µM (inactive); in [18] it was > 100 µM (inactive); in [19] it was > 100 µM (inactive).
Turning to `CCC1C(C(=O)Nc2ccccc2C)=C(C)NC(C)=C1c1ccccc1C` (configuration not stated), the GI50 in test [1], in test [2], in test [3], in test [4], in test [5] and in [6] was > 100 µM (inactive) in each case. The GI50 in [7] was > 48.6 µM (inactive); in test [8] it was > 100 µM (inactive); in [9], > 100 µM (inactive); in test [10], > 78 µM (inactive); in test [11] it was > 100 µM (inactive); in test [13] it was > 100 µM (inactive). In addition, the GI50 in test [15] is > 44.1 µM (inactive); in [16] it was > 40.1 µM; in test [17] it was > 100 µM (inactive); in [20], > 100 µM (inactive); in [18], > 100 µM (inactive); in test [19], > 40.6 µM (inactive).
Take `C/C(CC(=O)Nc1ccc([N+](=O)[O-])cc1)=N\NC(N)=O`: the GI50 in test [1] is > 44.4 µM (inactive); in test [2], > 100 µM (inactive); in test [3], > 100 µM (inactive); in [4], > 100 µM (inactive); in test [5], > 100 µM (inactive); in test [6], > 100 µM (inactive). Moreover, the GI50 in test [7] is > 57.8 µM (inactive); in test [8] it was > 100 µM (inactive); in test [9], > 100 µM (inactive); in test [10], > 100 µM (inactive); in test [11], > 100 µM (inactive); in test [13], > 100 µM (inactive). Besides, the GI50 in test [15] was > 100 µM (inactive); in test [16], 27 µM; in [17], > 100 µM (inactive); in [20], > 100 µM (inactive); in test [18], > 100 µM (inactive); in test [19], 98.2 µM (inactive).
Consider `Cc1nc2ccc(S(=O)(=O)Nc3ccccc3)cc2c(=O)n1NC(=O)CNc1ccccc1`, for which the GI50 in [1], in test [2], in test [3], in test [4], in test [5] and in [6] was > 100 µM (inactive) throughout. The GI50 is > 100 µM (inactive) in test [7]; 67.3 µM (inactive) in test [8]; > 100 µM (inactive) in test [9]; > 100 µM (inactive) in test [10]; > 100 µM (inactive) in test [11]; > 100 µM (inactive) in test [12]. For the same molecule, the GI50 in [13] is > 100 µM (inactive); in [14] it was > 100 µM (inactive); in test [15], > 100 µM (inactive); in [16], > 100 µM; in test [17], > 100 µM (inactive); in [18], > 100 µM (inactive). Besides, the GI50 in [19] was > 100 µM (inactive).
`COC(=O)C(CC(C)C)NC(=O)C(CCCNC(=N)N)NC(=O)OCc1ccccc1` (stereo not drawn) (Cbz-Arg-Leu-OMe; configuration not given here): the GI50 in test [1], in test [2], in test [3], in test [5], in [6] and in test [7] was > 100 µM (inactive) each time. Further, the GI50 in test [8], in [9], in test [10], in test [11], in [12] and in test [13] was > 100 µM (inactive) in each case. The GI50 in test [14] was > 100 µM (inactive); in [15] it was > 100 µM (inactive); in test [16] it was > 100 µM; in test [17], > 100 µM (inactive); in test [18], > 100 µM (inactive); in [19], > 100 µM (inactive).
Take `CCOC(=O)Cc1csc(Nc2ccccc2[N+](=O)[O-])n1`: the GI50 in test [1], in test [2], in test [3], in [4], in test [5] and in [6] was > 100 µM (inactive) throughout. Moreover, the GI50 in [7] is > 76.4 µM (inactive); in [8], > 100 µM (inactive); in test [9], > 100 µM (inactive); in [10], > 100 µM (inactive); in test [11], > 100 µM (inactive); in [13] it was > 100 µM (inactive). In addition, the GI50 is > 100 µM (inactive) in test [15]; > 56.6 µM in test [16]; > 100 µM (inactive) in test [17]; > 100 µM (inactive) in [20]; > 100 µM (inactive) in test [18]; > 100 µM (inactive) in test [19].
`O=C(Nc1cccc(C(F)(F)F)c1)c1cc(Br)cc(Br)c1O` [FLUOROSALAN]: the GI50 in [1] is 3.09 µM (inactive); in [2], 3.68 µM (inactive); in test [3] it was 3.91 µM (inactive); in [4], 2.52 µM (inactive); in [5], 3.38 µM (inactive); in [7], 2.32 µM (inactive). Moreover, the GI50 is 4.28 µM (inactive) in test [8]; 3.15 µM (inactive) in test [9]; 2.83 µM (inactive) in test [10]; 2.19 µM (inactive) in [11]; 3.2 µM (inactive) in test [12]; 2.81 µM (inactive) in test [13]. Further, the GI50 in [14] was 2.9 µM (inactive); in test [15], 3.02 µM (inactive); in test [16], 4.5 µM; in [17] it was 3.51 µM (inactive); in [18], 2.22 µM (inactive); in test [19], 4.25 µM (inactive).
